Laboratory results taken from patent US20100222423A1, “ASPALATHIN-LIKE DIHYDROCHALCONE, EXTRACTS FROM UNFERMENTED ROOIBOS AND PROCESS FOR PREPARATION” (KNEIPP-WERKE KNEIPP-MITTEL-ZENTRALE GMBH & CO. KG, priority 2007, published 2010).

System: Fischer-344 rats
Test: Tele-Stereo-EEG investigations in the rat (field potentials from frontal cortex, hippocampus, striatum, reticular formation)
Type: in vivo
Settings: for effect on EEG frequencies in comparison with molecular constituents: approximately equimolar administration; for changes in EEG frequencies / power density compared with saline solution: oral single dose 3 or 6 mg/kg, up to 5 hours after application, n=6 rats
Experimental: The changes in the EEG (electroencephalography) frequencies was determined after administration of saline solution (control) and the compound of the formula I orally (3 or 6 mg/kg body weight).
The investigations were carried out analogously to the method described by W. Dimpfel (Dimpfel, W., Preclinical database of pharmaco-specific rat EEG fingerprints (Tele-Stereo-EEG). Eur. J. Med. Res. (2003) δ: 199-207) as follows: 4 Bipolar concentric electrodes together with a microplug on a common baseplate were implanted in six male adult Fischer-344 rats (converted day-night) aged 6 months. The plug served for recording a four-channel transmitter for telemetric transmission of the field potentials derived from frontal cortex, hippocampus, striatum and reticular formation. The signals were subjected to a fast Fourier transformation on a computer system (“EEG analysis” software, OS science operating system, “LabTeam” laboratory computer from MediSyst, Linden, Germany) in realtime and the power density spectra were determined in each case over 60 minutes. The division of the spectra into 6 different frequency ranges permitted the determination of pharmaco-specific changes in relation to the initial values, measured in each case before application, within these frequency bands.
Application protocol of the substances: the substances were applied orally 45 minutes after the beginning of the measurements (initial value). Five minutes later, the measurements were started again, analyzed continuously at least over the next 5 hours and collected in 60 minute periods. The test substance was applied in a dose of 3 and 6 mg/kg (compound of the formula I). The experimental series was begun with the administration of saline solution (control), which led to no abnormal change (FIG. 6).
The statistical comparison of the experiments with the results which were measured after administration of saline solution was effected with the aid of multivariant analysis according to Ahrens and Läuter (cf. H. Ahrens, J. Läuter, “Mehrdimensionale Varianzanalyse” [Multidimensional variance analysis]” (1974), Akademie Verlag, Berlin) on the basis of the changes within the individual frequency bands in all regions of the brain as variables.

| crossing of the blood-brain barrier (inferred from central nervous activity) (rat, oral, substance or its metabolites) | Molecule | effect on EEG frequencies in comparison with molecular constituents (oral, rat) | changes in EEG frequencies / power density compared with saline solution | changes in EEG frequencies / power density compared with saline solution (listed as compound according to the formula I) | pattern of changes in electrical brain activity compared with reference medicaments (oral single dose, rat) | discriminance analysis of EEG frequency changes (four regions of the brain, 6 frequency bands, 24 variables) (rat, compared with medicaments of the database) |
| --- | --- | --- | --- | --- | --- | --- |
|  | catechin [reference compound] | not by parts of the molecule |  |  |  |  |
|  | O=C(CCc1ccc(O)c(O)c1)c1c(O)cc(O)c([C@@H]2O[C@H](CO)[C@@H](O)[C@H](O)[C@H]2O)c1O [aspalathin] | not by parts of the molecule |  |  |  |  |
| evidently cross the blood-brain barrier | O=C(CCc1ccc(O)c(O)c1)c1c(O)c(C2OC(CO)C(O)C(O)C2O)c(O)c(C2c3c(O)cc(O)cc3OC(c3ccc(O)c(O)c3)C2O)c1O (centres unmarked) [compound according to formula I] | the effect can be achieved | stable changes in the power density in all areas of the brain | dose-dependent changes in the EEG frequencies | corresponded to those after administration of metanicotine, galantamine, tacrine, L-DOPA or nefopam | close to that of galantamine, tacrine and nefopam |
